{
  "source": "patent US7943176B2",
  "about": "“Oral dosage form for propiverine or its pharmaceutically acceptable salts with an extended release of the active ingredient” (Apogepha Arzneimittel GmbH, priority 2001, dated 2011)",
  "key": {"[1]": {"conditions": "water, pH=4.0-8.0; cited from earlier work"}, "[2]": {"conditions": "water, 25° C.; cited from earlier work"}, "[3]": {"assay": "Distribution coefficient of propiverine-hydrochloride (1-octanol/water, 25° C.)", "assay_type": "physicochemical", "procedure": "(§1) The distribution coefficient and the solubility of propiverine-hydrochloride in dependence of the pH value are known (determination of the amount of propiverine in the aqueous phase via HPLC).\nDistribution coefficient of propiverine-hydrochloride (1-octanol/water, 25° C.)"}, "[4]": {"assay": "Solubility of propiverine-hydrochloride in water", "assay_type": "physicochemical", "conditions": "aqueous buffer", "excerpt": "as §1\nSolubility of propiverine-hydrochloride in water"}},
  "note": "Values joined by “and” are separate entries in the source; they are usually repeats but may differ in a detail not shown here. Equal entries are not always repeated. Structures can show the parent of a compound that is named as a salt. Where two headings read alike, the source gives them in different places.",
  "data": [
    {"smiles": "CCCOC(C(=O)OC1CC[N+](C)([O-])CC1)(c1ccccc1)c1ccccc1", "note": "(stereo not shown) [Propiverine-N-oxide, propiverine-N-oxide]", "values": [
      {"measurement": "solubility", "setting": "[1]", "value": "> 127 mg/mL and > 99 mg/mL"}
    ]},
    {"smiles": "CCCOC(C(=O)OC1CCN(C)CC1)(c1ccccc1)c1ccccc1", "note": "[propiverine, 2,2-diphenyl-2-(1-propoxy)acetic acid(1-methyl-piperid-4-yl)ester]", "values": [
      {"measurement": "pKa value", "setting": "[2]", "value": "7.35±0.1"}
    ]},
    {"smiles": "CCCOC(C(=O)OC1CCN(C)CC1)(c1ccccc1)c1ccccc1", "note": "[propiverine-hydrochloride]", "values": [
      {"measurement": "Log [K]", "setting": "[3]; pH 1.0", "value": 1.3},
      {"measurement": "K (distribution coefficient)", "setting": "[3]; pH 1.0, mean of three", "value": 22},
      {"measurement": "Log [K]", "setting": "[3]; pH 5.0", "value": 1.1},
      {"measurement": "K (distribution coefficient)", "setting": "[3]; pH 5.0, mean of three", "value": 13},
      {"measurement": "Log [K]", "setting": "[3]; pH 6.0", "value": 2.4},
      {"measurement": "K (distribution coefficient)", "setting": "[3]; pH 6.0, mean of three", "value": 227},
      {"measurement": "Log [K]", "setting": "[3]; pH 6.5", "value": 2.9},
      {"measurement": "K (distribution coefficient)", "setting": "[3]; pH 6.5, mean of three", "value": 884},
      {"measurement": "Log [K]", "setting": "[3]; pH 6.8", "value": 3.8},
      {"measurement": "K (distribution coefficient)", "setting": "[3]; pH 6.8, mean of three", "value": 6904},
      {"measurement": "Log [K]", "setting": "[3]; pH 7.0", "value": 4.0},
      {"measurement": "K (distribution coefficient)", "setting": "[3]; pH 7.0, mean of three", "value": 10346},
      {"measurement": "Log [K]", "setting": "[3]; pH 7.2", "value": 4.2},
      {"measurement": "K (distribution coefficient)", "setting": "[3]; pH 7.2, mean of three", "value": 15438},
      {"measurement": "Log [K]", "setting": "[3]; pH 7.5", "value": 4.4},
      {"measurement": "K (distribution coefficient)", "setting": "[3]; pH 7.5, mean of three", "value": 26068},
      {"measurement": "Log [K]", "setting": "[3]; pH 8.0", "value": 4.7},
      {"measurement": "K (distribution coefficient)", "setting": "[3]; pH 8.0, mean of three", "value": 52372},
      {"measurement": "solubility", "setting": "[4]; pH 5.8, 24 ° C.", "value": "> 200", "unit": "mg/mL"},
      {"measurement": "solubility", "setting": "[4]; pH 5.8, 37 ° C.", "value": 368, "unit": "mg/mL"},
      {"measurement": "solubility", "setting": "[4]; pH 6.0, 24 ° C.", "value": 209, "unit": "mg/mL"},
      {"measurement": "solubility", "setting": "[4]; pH 7.0, 24 ° C.", "value": 1.2, "unit": "mg/mL"},
      {"measurement": "solubility", "setting": "[4]; pH 7.2, 24 ° C.", "value": 1.1, "unit": "mg/mL"}
    ]}
  ]
}
